Measurements: ChEMBL document CHEMBL5528038, “Discovery of 2,3-Diaminoindole Derivatives as a Novel Class of NOD Antagonists” (J Med Chem, 2024)

How the values were obtained:
in vitro [1] = details: human, HEK-Blue hNOD1 cells
in vitro [2] = details: human, HEK-Blue hNOD2 cells
[3] = target: T1, Nucleotide-binding oligomerization domain-containing protein 1 (Homo sapiens, UniProt Q9Y239)
T1 sequence (Q9Y239 whole entry): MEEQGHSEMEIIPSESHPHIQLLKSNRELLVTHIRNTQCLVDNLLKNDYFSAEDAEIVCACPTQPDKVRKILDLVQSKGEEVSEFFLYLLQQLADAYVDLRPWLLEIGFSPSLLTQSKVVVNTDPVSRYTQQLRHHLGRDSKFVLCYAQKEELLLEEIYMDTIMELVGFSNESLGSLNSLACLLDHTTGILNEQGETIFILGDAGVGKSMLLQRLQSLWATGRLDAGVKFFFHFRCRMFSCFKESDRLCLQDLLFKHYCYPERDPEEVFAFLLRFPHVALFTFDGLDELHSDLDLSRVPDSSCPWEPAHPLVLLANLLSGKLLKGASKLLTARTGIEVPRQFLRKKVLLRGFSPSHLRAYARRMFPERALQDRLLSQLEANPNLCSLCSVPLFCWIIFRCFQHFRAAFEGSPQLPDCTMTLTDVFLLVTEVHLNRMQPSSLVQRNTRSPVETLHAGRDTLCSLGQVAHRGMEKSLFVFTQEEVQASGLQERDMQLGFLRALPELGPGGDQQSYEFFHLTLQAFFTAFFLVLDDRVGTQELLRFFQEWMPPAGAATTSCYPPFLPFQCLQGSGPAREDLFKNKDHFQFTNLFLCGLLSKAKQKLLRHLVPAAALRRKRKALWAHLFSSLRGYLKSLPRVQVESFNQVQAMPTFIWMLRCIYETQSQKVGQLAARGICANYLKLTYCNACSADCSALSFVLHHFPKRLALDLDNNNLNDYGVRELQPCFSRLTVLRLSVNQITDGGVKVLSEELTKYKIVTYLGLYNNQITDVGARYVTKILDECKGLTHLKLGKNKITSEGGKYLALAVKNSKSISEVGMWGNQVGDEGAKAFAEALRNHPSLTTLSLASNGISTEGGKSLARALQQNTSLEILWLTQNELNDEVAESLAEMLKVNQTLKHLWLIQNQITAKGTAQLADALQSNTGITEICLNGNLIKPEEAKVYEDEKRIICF
Description: Antagonist activity at human NOD1 expressed in HEK-Blue cells coexpressing NF-kappaB-inducible SEAP reporter gene assessed as inhibition of C12-iE-DAP-induced NF-kappaB transcriptional activity by measuring decrease in SEAP activity preincubated for 1 hr followed by C12-iE-DAP addition and measured after 18 hrs by spectrophotometric analysis

[4] = target: Nucleotide-binding oligomerization domain-containing protein 2 (Homo sapiens, UniProt Q9HC29)
Nucleotide-binding oligomerization domain-containing protein 2, sequence (Q9HC29 whole entry, the tested form may be a part): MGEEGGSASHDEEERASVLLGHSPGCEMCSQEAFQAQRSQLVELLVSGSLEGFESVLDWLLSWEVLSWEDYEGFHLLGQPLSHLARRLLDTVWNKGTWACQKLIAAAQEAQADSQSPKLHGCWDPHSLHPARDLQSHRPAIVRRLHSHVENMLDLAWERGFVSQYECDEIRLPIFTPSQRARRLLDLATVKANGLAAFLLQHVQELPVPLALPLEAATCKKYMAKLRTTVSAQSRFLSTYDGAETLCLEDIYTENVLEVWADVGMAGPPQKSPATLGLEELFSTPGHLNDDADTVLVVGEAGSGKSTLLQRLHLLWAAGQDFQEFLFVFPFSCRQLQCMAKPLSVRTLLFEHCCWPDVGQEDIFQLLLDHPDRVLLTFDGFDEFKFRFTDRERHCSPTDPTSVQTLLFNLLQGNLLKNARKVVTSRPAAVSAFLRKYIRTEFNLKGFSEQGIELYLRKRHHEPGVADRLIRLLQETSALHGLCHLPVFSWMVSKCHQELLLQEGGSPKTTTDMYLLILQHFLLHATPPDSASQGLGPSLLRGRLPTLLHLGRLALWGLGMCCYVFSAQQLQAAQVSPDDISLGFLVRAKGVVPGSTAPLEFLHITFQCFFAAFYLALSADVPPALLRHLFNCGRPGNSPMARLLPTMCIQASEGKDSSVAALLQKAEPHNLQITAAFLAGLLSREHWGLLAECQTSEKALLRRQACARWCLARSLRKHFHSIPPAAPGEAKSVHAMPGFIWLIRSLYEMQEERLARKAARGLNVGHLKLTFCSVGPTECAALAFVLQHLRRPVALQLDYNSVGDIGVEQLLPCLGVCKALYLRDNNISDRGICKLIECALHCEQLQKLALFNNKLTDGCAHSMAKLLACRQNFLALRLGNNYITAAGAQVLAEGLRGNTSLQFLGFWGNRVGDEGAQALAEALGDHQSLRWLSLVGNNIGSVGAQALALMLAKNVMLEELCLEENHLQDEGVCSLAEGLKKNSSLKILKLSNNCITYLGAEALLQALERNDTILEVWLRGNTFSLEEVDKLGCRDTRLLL
Description: Antagonist activity at human NOD2 (unknown origin)

SMILES | viability at 18 h, 25 µM (in vitro [1]) [%] | viability at 18 h, 25 µM (in vitro [2]) [%] | IC50 [3] [µM] | IC50 [4] [µM]
CC(C)(C)Nc1c(N2CCOCC2)c2ccccc2n1S(=O)(=O)c1ccc([N+](=O)[O-])cc1 | ≥ 80 | ≥ 80 |  | 
Cc1ccc(S(=O)(=O)n2c(NC3CCCCC3)c(N3CCN(C)CC3)c3cc4ccccc4cc32)cc1 | ≥ 80 | ≥ 80 |  | 
Cc1ccc(S(=O)(=O)n2c(NC(C)(C)C)c(N3CCN(C)CC3)c3cc4ccccc4cc32)cc1 | ≥ 80 | ≥ 80 |  | 
CCN(CC)c1c(NC(C)(C)C)n(S(=O)(=O)c2ccc(C)cc2)c2ccccc12 | ≥ 80 | ≥ 80 |  | 
COC(=O)CNc1c(N2CCOCC2)c2ccccc2n1S(=O)(=O)c1ccc(C)cc1 | ≥ 80 | ≥ 80 |  | 
Cc1ccc(S(=O)(=O)n2c(NC(C)(C)C)c(N3CCOCC3)c3cc(Cl)ccc32)cc1 | ≥ 80 | ≥ 80 |  | 
Cc1ccc(S(=O)(=O)n2c(NC3CCCCC3)c(N3CCN(C)CC3)c3ccccc32)cc1 | ≥ 80 | ≥ 80 | 18.5 | 
COc1ccc(S(=O)(=O)n2c(NC(C)(C)C)c(N3CCOCC3)c3ccccc32)cc1 | ≥ 80 | ≥ 80 |  | 
CCN(CC)c1c(NC(C)(C)C)n(S(=O)(=O)c2ccc(C)cc2)c2cccc(C)c12 | ≥ 80 | ≥ 80 |  | 
Cc1ccc(S(=O)(=O)n2c(NCc3ccccc3)c(N3CCN(C)CC3)c3ccccc32)cc1 | ≥ 80 | ≥ 80 |  | 
Cc1ccc(S(=O)(=O)n2c(NC(C)(C)C)c(N3CCOCC3)c3ccccc32)cc1 | ≥ 80 | ≥ 80 |  | 
Cc1ccc(S(=O)(=O)n2c(NC3CC3)c(N3CCOCC3)c3cc(Cl)ccc32)cc1 | ≥ 80 | ≥ 80 |  | 
Cc1ccc(S(=O)(=O)n2c(NC(C)(C)C)c(N3CCCCC3)c3ccccc32)cc1 | ≥ 80 | ≥ 80 |  | 
Cc1ccc(S(=O)(=O)n2c(NCc3ccccc3)c(N3CCOCC3)c3ccccc32)cc1 | ≥ 80 | ≥ 80 |  | 
C#CCN(C)c1c(Nc2ccc3ccccc3c2)n(S(=O)(=O)c2ccc(C)cc2)c2cc(Cl)ccc12 | ≥ 80 | ≥ 80 |  | 
O=[N+]([O-])c1ccc(S(=O)(=O)n2c(NCc3ccccc3)c(N3CCOCC3)c3ccccc32)cc1 | ≥ 80 | ≥ 80 |  | 
CCCCCn1c(SCCc2ccccc2)nc2[nH]c(=O)[nH]c(=O)c21 |  |  |  | > 20
Cc1ccc(S(=O)(=O)n2c(NCc3ccccc3)c(N3CCN(C)CC3)c3cc4ccccc4cc32)cc1 | ≥ 80 | ≥ 80 | 20.7 | 
CCCCCNc1c(N(CC)CC)c2ccccc2n1S(=O)(=O)c1ccc(C)cc1 | ≥ 80 | ≥ 80 |  | 
CCCCCNc1c(N2CCOCC2)c2ccccc2n1S(=O)(=O)c1ccc(C)cc1 | ≥ 80 | ≥ 80 |  | 
CCCCCNc1c(N2CCOCC2)c2ccccc2n1S(=O)(=O)c1ccc([N+](=O)[O-])cc1 | ≥ 80 | ≥ 80 | 26.1 | 
